Results as given in US20180289008A1, “METHODS FOR WILDFIRE CONTROL, INVASIVE PLANT CONTROL, AND RESIDUAL CONTROL OF INVASIVE PLANTS” (priority 2017, published 2018).

Tests used:
[1] = average; cited from earlier work
[2] = pH 7; cited from earlier work
[3] = tested on: Dalmatian toadflax (Linaria dalmatica); test: Herbicide efficacy field trial, visual percent control of Dalmatian toadflax; format: in vivo; details: 4 YAT
Description: The present inventors conducted a field trial to evaluate the effectiveness of herbicides for long-term downy brome and Dalmatian toadflax control. The experiment was conducted at one site. The results provide the framework for the subsequent greenhouse experiment. (See below). The field experiment was located in Longmont, Colo. (lat 40° 14′57.53″N, long 105° 12′35.46″W) on Rabbit Mountain Open Space, the easternmost point of the foothills in Boulder County. The canopy cover of actively growing downy brome and Dalmatian toadflax at peak standing crop was approximately 85% and 30%, respectively. Before herbicide application (June and August), perennial grasses (<10% canopy cover) included primarily western wheatgrass (Pascopyrum smithii (Rydb.) A. Love), and native forbs and sub-shrubs (˜20% canopy cover) included Louisiana sage (Artemisia ludoviciana Nutt.), fringed sage (Artemisia frigida Willd.), common sunflower (Helianthus annuus L.), sulphur-flower buckwheat (Eriogonum umbellatum Torr.), and hairy goldenaster (Heterotheca villosa (Pursh) Shinners). The soil at the study site was Baller sandy loam (loamy-skeletal, mixed, superactive, mesic Lithic Haplustolls), with 1.5% organic matter in the top 20 cm. The average elevation was 1,725 m (5,660 ft). Mean annual precipitation based on the 30-yr average was 363 mm and the mean annual temperature was 9.1° C. […]. A statewide-drought occurred and average total precipitation decreased 134 mm; however, the site received an additional 110 mm above the 30-yr average.
Herbicides were applied in the summer at two application timings; June, when Dalmatian toadflax was in the flowering growth stage, and August, during Dalmatian toadflax regrowth. These two application timings (June and August) were both before downy brome emergence (PRE). The 13 herbicide treatments (including a non-treated control) were applied to 3 by 9 m plots arranged in a randomized complete block design with four replications, and are listed in Table 1. […]
(§1) For the herbicide efficacy field experiment, repeated measures analysis of variance (ANOVA) was used to determine the effects of herbicide treatments on long-term Dalmatian toadflax and downy brome control. Percent control data were first analyzed in SAS 9.3 using Proc MIXED, with year after treatment defined as the repeated measure (SAS Institute 2010). […] Dalmatian toadflax and downy brome control response variables were analyzed separately, and main effects and interactions were tested at the α=0.05 significance level. […] To determine herbicide impacts on residual Dalmatian toadflax and downy brome control, the significant treatment-by-year interaction was evaluated using the Proc GLIMMIX method and the LINES statement. […]

[4] = tested on: Halogeton (Halogeton glomeratus); test: Greenhouse pre-emergence dose-response bioassay (GR50); format: in vivo; details: pre-emergence
Text: (§2) A greenhouse experiment was designed to determine if the extended control of Dalmatian toadflax and downy brome provided by indaziflam in the field was due to increased residual seedling control. This experiment was designed to compare indaziflam's pre-emergence efficacy to the currently recommended herbicides (aminocyclopyrachlor and aminopyralid) for annual, biennial, and perennial weed control in non-crop areas. […] This allows for direct comparisons between herbicides on an active ingredient basis for aminopyralid, aminocyclopyrachlor, and indaziflam.
(§3) For the greenhouse bioassay, seeds were planted at a constant depth of 0.5 cm in 13- by 9- by 6-cm plastic containers, filled with an Otero sandy clay loam field soil (Coarse-loamy, mixed (calcareous), mesic Aridic Ustorthents) with 3.9% OM and pH 7.7. Seeding densities were adjusted based on germinability to reach a target density of 40 plants/pot. Plants were maintained in a greenhouse with a 25/20° C. day/night temperature with natural light supplemented with high-intensity discharge lamps to give a 15-h photoperiod. Plants were sub-irrigated as needed and misted overhead daily to reduce soil crusting.
(§4) The greenhouse experiment was a completely randomized design with a factorial of seven herbicide rates and a non-treated control with three replicates per treatment. The experiments were conducted at two different times. A preliminary greenhouse study was conducted for each herbicide and species to determine a range of doses that would best fit a logistic regression. It is not unusual for both pre-emergence and post-emergence herbicides to provide control at lower than labeled rates, e.g., 0.5-560 g ai ha^−1 (aminocyclopyrachlor), 0.9-224 g ai ha^−1 (aminopyralid), and 0.05-11.7 g ai ha^−1 (indaziflam) in the greenhouse with ideal environmental conditions, so it was not surprising that herbicide doses for the regression analysis were much lower than recommended field use rates. Herbicides were applied pre-emergence using a Generation III research track sprayer (DeVries Manufacturing, Hollandale, Minn.) equipped with a TeeJet 8002 EVS flat-fan spray nozzle (TeeJet Spraying Systems Co., Wheaton, Ill.) at 187 L·ha-1 at 172 kPa.
(§5) Plants were harvested at the soil surface approximately 4 to 5 week-after-treatment (WAT) depending on the growth stage of each species. Weights were recorded after samples were dried for 5 days at 60° C. Percent dry weight reduction was calculated relative to the non-treated control plants for each treatment.
(§6) Data from the greenhouse dose-response experiment were first analyzed using the PROC MIXED method in SAS 9.3 with treatment as a fixed effect and experiment and replicate as random effects (SAS Institute 2010). Based on a non-significant homogeneity of variance (ANOVA) and experiment-by-herbicide rate interaction, results from the repeated experiments were pooled. The treatment effect was significant, therefore, nonlinear regression in Graphpad Prism 7.00 (GraphPad Software, La Jolla Calif. USA) was used to describe the response of the nine weed species to aminocyclopyrachlor, aminopyralid, and indaziflam. The herbicide concentrations resulting in 50% reduction in plant biomass (GR50) compared to the non-treated control were determined for each invasive weed species using four-parameter log-logistic regression. The equation used to regress herbicide concentration with percent reduction in plant dry biomass as compared to the non-treated control was:
(§7) where C and D represent the lower and upper limits of the dose-response curve, respectively, and b represents the slope of the best-fitting curve through the GR50 value. For curve fitting and GR50 estimation, the model was constrained to a maximum of 100 and minimum of 0. Mean separation of herbicide GR50 values were analyzed by Fisher's Protected LSD test at the 5% level of probability. […]

[5] = tested on: Marestail (Conyza Canadensis); test: as above; format: in vivo; details: pre-emergence
Text: as §2, §3, §4, §5, §6, §7

[6] = tested on: Common mullein (Verbascum thapsus); test: as above; format: in vivo; details: pre-emergence
Text: as §2, §3, §4, §5, §6, §7

[7] = tested on: Diffuse knapweed (Centaurea diffusa); test: as above; format: in vivo; details: pre-emergence
Text: as §2, §3, §4, §5, §6, §7

[8] = tested on: Musk thistle (Carduus nutans); test: as above; format: in vivo; details: pre-emergence
Text: as §2, §3, §4, §5, §6, §7

[9] = tested on: Curly dock (Rumex crispus); test: as above; format: in vivo; details: pre-emergence
Text: as §2, §3, §4, §5, §6, §7

[10] = tested on: Common teasel (Dipsacus fullonum); test: as above; format: in vivo; details: for GR50 (herbicide dose resulting in 50% dry biomass reduction): pre-emergence
Text: as §2, §3, §4, §5, §6, §7

[11] = tested on: downy brome (Bromus tectorum); test: as above; format: in vivo; details: pre-emergence
Text: as §2, §3, §4, §5, §6, §7

[12] = tested on: Dalmatian toadflax (Linaria dalmatica); test: as above; format: in vivo; details: pre-emergence
Text: as §2, §3, §4, §5, §6, §7

[13] = tested on: downy brome (Bromus tectorum); test: Herbicide efficacy field trial, visual percent control of downy brome; format: in vivo; details: 4 YAT
Description: The present inventors conducted a field trial to evaluate the effectiveness of herbicides for long-term downy brome and Dalmatian toadflax control. The experiment was conducted at one site. The results provide the framework for the subsequent greenhouse experiment. (See below). The field experiment was located in Longmont, Colo. (lat 40° 14′57.53″N, long 105° 12′35.46″W) on Rabbit Mountain Open Space, the easternmost point of the foothills in Boulder County. The canopy cover of actively growing downy brome and Dalmatian toadflax at peak standing crop was approximately 85% and 30%, respectively. […]
as §1

[14] = tested on: invasive winter annual grass (downy brome, feral rye, Japanese brome); test: Invasive winter annual grass field efficacy studies, biomass as percent of non-treated (Sites 1 and 2 combined); format: in vivo, Bromus tectorum, Secale cereale, Bromus japonicus; details: 1 YAT, EPRE timing, imazapic 123 g·ai·ha^−1
Description: In year 1, field experiments were conducted to compare the effectiveness of indaziflam and imazapic for long-term invasive winter annual grass control, and to evaluate the response of the native plant communities. The experiments were established at two sites on the Colorado Front Range dominated by invasive winter annual grasses. Site 1 (lat 40° 15′2″N, long 105° 12′56″W) was infested with equal amounts of downy brome and Japanese brome. Site 2 (lat 40° 43′23″N, long 104° 55′58″W) was infested with feral rye. These two sites were approximately 58 km apart. Site 1 was located on Rabbit Mountain Open Space (Boulder County). Site 2 was located on a Colorado Parks and Wildlife Area (Larimer County). Before herbicide application in July, visual estimates were made across the entire study area of percentage of living canopy cover for all species present at both sites.
Site 1 was characterized by ˜80-100% downy brome and Japanese brome canopy cover with a dense fine-fuel layer, e.g., thatch, (2 to 5 cm), and a scattered stand of co-occurring species (˜0-10% canopy cover, Table 4). […]
Biomass harvests and species richness evaluations were conducted in August (year 2 and year 3) to evaluate invasive winter annual grass control and response of co-occurring species. […] Additionally, at Site 1, species richness was calculated for each treatment as a simple estimate of biological diversity. […]

| Structure (SMILES) | water solubility [1] | Log Kow [2] | Dalmatian toadflax control ([3]; August application timing) [%] | Dalmatian toadflax control ([3]; June application timing) [%] | GR50 (herbicide dose resulting in 50% dry biomass reduction) [4] | GR50 (herbicide dose resulting in 50% dry biomass reduction) [5] | GR50 (herbicide dose resulting in 50% dry biomass reduction) [6] | GR50 (herbicide dose resulting in 50% dry biomass reduction) [7] | GR50 (herbicide dose resulting in 50% dry biomass reduction) [8] | GR50 (herbicide dose resulting in 50% dry biomass reduction) [9] | times more active (lower GR50) compared to aminocyclopyrachlor [10] | times more active (lower GR50) compared to indaziflam [10] | GR50 (herbicide dose resulting in 50% dry biomass reduction) [10] | GR50 (herbicide dose resulting in 50% dry biomass reduction) [11] [b g ai ha^−1] | GR50 (herbicide dose resulting in 50% dry biomass reduction) [12] | residual downy brome control [13] | invasive winter annual grass control [14] [%] |
| --- | --- | --- | --- | --- | --- | --- | --- | --- | --- | --- | --- | --- | --- | --- | --- | --- | --- |
| Nc1c(Cl)c(Cl)nc(C(=O)O)c1Cl [Picloram, picloram] | 200,000 mg L-1 | 1.18 | 64 | 68 |  |  |  |  |  |  |  |  |  |  |  |  |  |
| Nc1cc(Cl)nc(C(=O)O)c1Cl [Aminopyralid, aminopyralid] | 207,000 mg L-1 | −2.87 |  |  | 3.11 c g ai ha^−1 | 0.80 b g ai ha^−1 | 7.45 c g ai ha^−1 | 2.50 b g ai ha^−1 | 0.31 a g ai ha^−1 | 1.25 a g ai ha^−1 | 9 | 2 | 0.75 a g ai ha^−1 | 38.5 | 14.8 c g ai ha^−1 |  |  |
| Cc1cnc(C2=NC(=O)C(C)(C(C)C)N2)c(C(=O)O)c1 (stereo not drawn) [Imazapic, imazapic] |  | 0.01 |  |  |  |  |  |  |  |  |  |  |  |  |  | less than 25% | ~41 |
| Nc1nc(C2CC2)nc(C(=O)[O-])c1Cl.[K+] [Aminocyclopyrachlor, aminocyclopyrachlor] | 4,200 mg L-1 | −2.48 | 55 | 50 | 1.04 b g ai ha^−1 | 2.09 c g ai ha^−1 | 3.05 b g ai ha^−1 | 6.20 c g ai ha^−1 | 1.25 b g ai ha^−1 | 21.3 b g ai ha^−1 |  |  | 6.89 c g ai ha^−1 | 56.4 | 1.16 b g ai ha^−1 |  |  |
